Type in all cases: biochemical, Campylobacter jejuni 11168
In experiment [1] the test system is LegB (Cj1319, 4,6-dehydratase). Description: LegB C4,6 dehydratase reaction with NDP-sugars. The note with it: in the presence or absence of NAD(P)+. The protocol: (§1) Enzymatic reactions were performed for 4.5 h at 37° C., and then overnight at 25° C., with approximately 200 μg ml^−1 respective protein concentration using chemicals from Sigma (unless otherwise indicated). GDP-glucosamine biosynthesis. The ‘one-pot’ enzymatic synthesis of GDP-GlcN from Fru-6-P (I→IV) was accomplished using a 3 ml reaction containing His6PtmF, PtmAHis6, PgmLHis6, His6PtmE, 5 mM Fru-6-P (I), 10 mM L-Gln, 1 mM DTT, 5 mM MgCl2, 0.8 U ml^−1 pyrophosphatase, and 2.5 mM GTP in 25 mM Tris pH 7.5. Large-scale enzymatic synthesis of GDP-GlcN (IV) was accomplished using a 12 ml reaction containing 50 mM Tris pH 7.5, 1 mM GTP, 1 mM MgCl2, 0.8 U ml^−1 pyrophosphatase, 1.2 mM GlcN-1-P (III) and approximately 4.8 mg of His6PtmE. The large-scale enzymatic synthesis of GDP-GlcNAc was performed similar to that above, except the scale was increased five-fold and GlcNAc-1-P was used in place of GlcN-1-P (III). Assessment of His6PtmE substrate specificity was accomplished using 9 reactions, 80 μl each, containing 50 mM Tris pH 7.5, 2 mM MgCl2, 50 μg His6PtmE, and various combinations of 10 mM sugar-1-P (GalN-1-P, GlcN-1-P or GlcNAc-1-P) and 0.2 mM NTP (CTP, GTP, or TTP). Conversion of GDP-GlcN to GDP-GlcNAc. The His6GlmU reaction was performed using 1 mM GDP-GlcN (IV), 1.2 mM acetyl-CoA and His6GlmU in 25 mM sodium phosphate pH 7.8, 25 mM NaCl, 10 mM β-mercaptoethanol. In addition, a control reaction was performed containing 1 mM GlcN-1-P (III) instead of IV. Biosynthesis of legionaminic acid from GDP-GlcNAc. The stepwise enzymatic synthesis of intermediates or products was accomplished in 2 stages (V→VI→VII→VIII, and then VIII→IX→X) using 1 mM of V, 0.5 mM NAD, 0.8 mM PLP, 8 mM L-Glu, 1.2 mM acetyl-CoA, 1.2 mM PEP, LegBHis6, His6LegC, His6LegH, His6LegG, and His6LegI as appropriate, in 25 mM sodium phosphate pH 7.3, 25 mM NaCl. Assessment of His6LegG activity involved monitoring the reaction kinetics by ^1H NMR (see NMR spectroscopy) for 75 min using 0.75 mM GDP-2,4-diacetamido-2,4,6-trideoxy-α-D-Glc (VIII), 4 μg His6LegG in 200 μl of 25 mM sodium phosphate pH 7.3, 25 mM NaCl at 25° C. In addition, the substrate flexibility of His6LegG was assessed using a 300 μl reaction containing 40 μg His6LegG, 25 mM sodium phosphate pH 7.3, 25 mM NaCl, and 0.75 mM UDP-2,4-diacetamido-2,4,6-trideoxy-α-D-Glc, with incubation at 37° C. for 1.5 h, and then overnight at 25° C. Biosynthesis of CMP-legionaminic acid. The CMP-activation of legionaminic acid (X→XI) was performed using a 20 ml reaction containing approximately 0.2 mM of X, 50 mM MgCl2, 3 mM CTP, and 15 mg of LegFHis6 in 25 mM sodium phosphate pH 7.8, 25 mM NaCl, with incubation at 37° C. for 5 h, and then 25° C. for 72 h. Metabolite purification. Typically, reactions were passed through an Amicon Ultra-15 (10,000 molecular weight cut-off) or Ultra-4 (5,000 molecular weight cut-off) filter membrane before analysis. As required, NDP-sugar preparations (GDP-Glc, GDP-GlcN, GDP-GlcNAc, CDP-GlcNAc, TDP-GlcNAc, and CMP-Leg) were lyophilized and desalted/purified using a Superdex Peptide 10/300 GL (Amersham Biosciences) column in 25 mM ammonium bicarbonate, pH 7.9. For further purity, the NDP-sugar samples above were subjected to anion-exchange chromatography (Mono Q 4.6/100 PE, Amersham Biosciences) using ammonium bicarbonate pH 7.9. Quantification of NDP-sugar preparations was determined using the molar extinction coefficients of CMP (ε260=7,400), GDP (ε260=11,500), TDP (ε260=8,700), and UDP (ε260=10,000).
(§2) CE analysis was performed using either a P/ACE 5510 or P/ACE MDQ system (Beckman Instruments, Mississauga, Ont) with diode array detection. The capillaries were bare silica 50 μm×50 cm, with a detector at 50 cm, and the running buffer was 25 mM sodium tetraborate pH 9.4. Samples were introduced by pressure injection for 6 sec, and the separation was performed at 18 kV for 20 min. Peak integration was done using the Beckman P/ACE station software.

In experiment [2] the test system is His6PtmE (Cj1329, nucleotidyltransferase). Description: His6PtmE substrate specificity (sugar-1-P acceptors and NTP donors). The note with it: for PtmE activity with sugar-1-P acceptor: 10 mM sugar-1-P, 0.2 mM NTP, 30 min at 37° C.; for PtmE NTP donor specificity with this sugar acceptor: NTP = CTP, GTP or TTP. As for the experimental part: as §1, with “Enzymatic reactions were performed for 4.5 h at 37° C., and then overnight at 25° C., with approximately 200 μg ml^−1 respective protein concentration using chemicals from Sigma (unless otherwise indicated).” left out
as §2

The target in experiment [3] is T1, His6LegG (Cj1328, NDP-sugar hydrolase/2-epimerase) (Campylobacter jejuni subsp. jejuni serotype O:2, UniProt Q0P8T0).
T1 construct: made in house; host or cells: E. coli BL21[DE3]
Description: His6LegG activity and substrate flexibility (1H NMR, CE). As for the experimental part:
as §1, with “The CMP-activation of legionaminic acid (X→XI) was performed using a 20 ml reaction containing approximately 0.2 mM of X, 50 mM MgCl2, 3 mM CTP, and 15 mg of LegFHis6 in 25 mM sodium phosphate pH 7.8, 25 mM NaCl, with incubation at 37° C. for 5 h, and then 25° C. for 72 h. Metabolite purification. Typically, reactions were passed through an Amicon Ultra-15 (10,000 molecular weight cut-off) or Ultra-4 (5,000 molecular weight cut-off) filter membrane before analysis. As required, NDP-sugar preparations (GDP-Glc, GDP-GlcN, GDP-GlcNAc, CDP-GlcNAc, TDP-GlcNAc, and CMP-Leg) were lyophilized and desalted/purified using a Superdex Peptide 10/300 GL (Amersham Biosciences) column in 25 mM ammonium bicarbonate, pH 7.9. For further purity, the NDP-sugar samples above were subjected to anion-exchange chromatography (Mono Q 4.6/100 PE, Amersham Biosciences) using ammonium bicarbonate pH 7.9.” left out, “(ε260=10,000). […]” for “(ε260=10,000).”

T1 sequence (Q0P8T0 whole entry): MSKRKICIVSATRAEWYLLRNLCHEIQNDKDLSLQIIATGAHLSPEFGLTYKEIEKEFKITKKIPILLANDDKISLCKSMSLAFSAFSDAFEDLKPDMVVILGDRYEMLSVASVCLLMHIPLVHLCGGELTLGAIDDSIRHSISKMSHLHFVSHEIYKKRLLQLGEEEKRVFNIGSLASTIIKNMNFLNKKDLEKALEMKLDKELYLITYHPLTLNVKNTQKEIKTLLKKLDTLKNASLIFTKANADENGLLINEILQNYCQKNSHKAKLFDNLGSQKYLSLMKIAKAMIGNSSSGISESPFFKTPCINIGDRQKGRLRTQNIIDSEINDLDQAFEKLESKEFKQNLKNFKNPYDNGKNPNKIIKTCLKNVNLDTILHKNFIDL

Consider `CC(=O)NC1C(OP(=O)(O)OP(=O)(O)OCC2OC(n3ccc(N)nc3=O)C(O)C2O)OC(CO)C(O)C1O` (stereo not shown) [CDP-GlcNAc, CDP-N-acetyl-glucosamine], for which the “LegB reaction product formation” value in experiment [1] was “did not yield discernable product”.

In the case of `N[C@H]1C(OP(=O)(O)O)O[C@H](CO)[C@H](O)[C@@H]1O` (stereo partly shown) [GalN-1-P], the “PtmE activity with sugar-1-P acceptor” value in experiment [2] is recorded as “no activity was observed”.

As to `O=P(O)(O)O[C@H]1O[C@H](CO)[C@@H](O)[C@H](O)[C@H]1O` [Glc-1-P, glucose-1-phosphate], the “PtmE activity with sugar-1-P acceptor” value in experiment [2] is “activity was observed”. In the case of `CC(=O)N[C@H]1[C@@H](OP(=O)(O)O)O[C@H](CO)[C@@H](O)[C@@H]1O` [GlcNAc-1-P, N-acetyl-α-D-glucosamine-1-phosphate], in experiment [2], the “PtmE activity with sugar-1-P acceptor” value is “activity was observed” and the “PtmE NTP donor specificity with this sugar acceptor” value is “exhibited promiscuity with respect to activator NTP donors”.

In the case of `N[C@H]1[C@@H](OP(=O)(O)O)O[C@H](CO)[C@@H](O)[C@@H]1O` [III, α-D-glucosamine-1-phosphate], in experiment [2], the “PtmE activity with sugar-1-P acceptor” value was “activity was observed” and the “PtmE NTP donor specificity with this sugar acceptor” value is recorded as “absolutely specific for GTP”. Take `CC(=O)NC1C(OP(=O)(O)OP(=O)(O)OCC2OC(n3cc(C)c(=O)[nH]c3=O)CC2O)OC(CO)C(O)C1O` (stereo not shown) [TDP-GlcNAc, TDP-N-acetyl-glucosamine]: the “LegB reaction product formation” value in experiment [1] was “did not yield discernable product”. As to `Cc1cn([C@H]2C[C@H](O)[C@@H](COP(=O)(O)OP(=O)(O)O[C@H]3O[C@H](CO)[C@@H](O)[C@H](O)[C@H]3O)O2)c(=O)[nH]c1=O` [TDP-Glc], the “LegB reaction product formation” value in experiment [1] is “did not yield discernable product”. On to `CC(=O)N[C@H]1[C@@H](OP(=O)(O)OP(=O)(O)OC[C@H]2O[C@@H](n3ccc(=O)[nH]c3=O)[C@H](O)[C@@H]2O)O[C@H](C)[C@@H](NC(C)=O)[C@@H]1O` [UDP-2,4-diacetamido-2,4,6-trideoxy-α-D-glucose, reference compound], for which the “NDP removal by LegG” value in experiment [3] (quantity of LegG increased 10-fold, 90 min 37° C. then 16 h 25° C., CE) is “UDP removal was observed”. Also, the “formation of IX by LegG” value in experiment [3] (similar conditions (4 μg LegG)) is on record as “IX was not observed”. For `CC(=O)N[C@H]1[C@@H](OP(=O)(O)OP(=O)(O)OC[C@H]2O[C@@H](n3ccc(=O)[nH]c3=O)[C@H](O)[C@@H]2O)O[C@H](CO)[C@@H](O)[C@@H]1O` [UDP-GlcNAc, UDP-N-acetyl-α-D-glucosamine], the “LegB reaction product formation” value in experiment [1] is “did not yield discernable product”.

Consider `CC(=O)N[C@H]1[C@@H](OP(=O)(O)OP(=O)(O)OC[C@H]2O[C@@H](n3cnc4c(=O)[nH]c(N)nc43)[C@H](O)[C@@H]2O)O[C@H](C)[C@@H](NC(C)=O)[C@@H]1O` [VIII, GDP-2,4-diacetamido-2,4,6-trideoxy-α-D-glucose], for which the “time to near completion of formation of IX by LegG” value in experiment [3] (4 μg LegG, 0.75 mM substrate, 25° C., in-tube 1H NMR) is no more than 75 min.

The values are drawn from patent publication US9157105B2, “Biosynthesis of CMP-legionaminic acid from fructose-6-P, and respective pathway intermediates, using novel GDP-linked precursors” (priority 2008, dated 2015).
